The source made the active and inactive calls.
Experiments:
[1] = P. falciparum Dd2 growth inhibitors, dose response, SYBR Green, cherry-picked samples (AID 1159567); format: functional, cell-based
[2] = growth suppression of beta-catenin-knockout colon cells, dose response, cell-based, HCT116, human colon tumor (AID 1045); format: functional;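 also: HCT116 colon tumor cells with beta catenin knocked out; cells exposed to compound for 60 hours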
[3] = growth suppression of PTEN-null colon cells, dose response, cell-based, HCT116 PTEN knockout (AID 1047); format: functional;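 also: HCT116 colon tumor cells with PTEN knocked out; cells exposed to compound for 60 hours before readout; potency for loss of cell viability measured by luminescence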
[4] = off-target signal loss in HeLa-CEM21 co-culture – HeLa F-luc CTL cells, cherry-picked, counter-screen for HIV-1 Env fusion inhibitor project, dose response (AID 652040); format: functional, cell-based;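 also: potency for signal decrease marking cytotoxic or nonspecific inhibition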
[5] = target: T1, Rac GTPase-activating protein 1 (Homo sapiens, UniProt Q9H0H5); test: MgcRacGAP GTPase-activating activity inhibitors, confirmation, biochemical, ADP Hunter fluorescence, primary and confirmatory (AID 624330); format: functional
T1 sequence (Q9H0H5 whole entry): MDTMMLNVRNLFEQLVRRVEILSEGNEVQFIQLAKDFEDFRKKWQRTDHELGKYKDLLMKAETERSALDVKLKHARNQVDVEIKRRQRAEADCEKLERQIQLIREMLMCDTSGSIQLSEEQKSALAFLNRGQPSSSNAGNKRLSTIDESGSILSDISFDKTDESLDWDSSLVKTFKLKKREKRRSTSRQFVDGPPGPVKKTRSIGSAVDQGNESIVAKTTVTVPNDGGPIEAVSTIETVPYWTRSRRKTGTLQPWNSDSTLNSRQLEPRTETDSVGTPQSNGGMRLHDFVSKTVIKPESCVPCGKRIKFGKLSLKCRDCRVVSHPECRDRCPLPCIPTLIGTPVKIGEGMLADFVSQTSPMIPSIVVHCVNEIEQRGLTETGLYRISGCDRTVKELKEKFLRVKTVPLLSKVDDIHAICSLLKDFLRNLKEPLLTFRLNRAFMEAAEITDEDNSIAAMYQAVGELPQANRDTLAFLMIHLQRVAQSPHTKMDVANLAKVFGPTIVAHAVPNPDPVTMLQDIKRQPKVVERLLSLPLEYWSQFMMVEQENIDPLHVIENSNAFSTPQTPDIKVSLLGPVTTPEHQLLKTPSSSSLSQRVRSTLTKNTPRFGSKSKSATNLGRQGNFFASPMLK

Large T antigen = Large T antigen (Simian virus 40, UniProt P03070); format: functional, Betapolyomavirus macacae;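 also: Confirmatory-stage PubChem screen for compounds that inhibit SV40 T antigen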
cells [6] = format: functional, cell-based
cells [7] = format: functional, cell-based; remark: listed apart in the source
INS1 = test: beta cell apoptosis inhibitors, cytokine rescue, dose response, luminescence, retest (AID 449756); format: functional, cell-based; conditions: Rattus norvegicus;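 also: cell death triggered by IL-1 beta plus TNF-alpha plus IFN-gamma mixture; protective hits raise ATP signal compared with cytokine alone wells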
[8] = HepG2 cell cytotoxicity, dose response, cytotoxicity control for Shn3 inhibitor project, CellTiter-Glo, cherry-picked (AID 624134); format: functional, cell-based
[9] = Shn3 3'UTR reporter inhibitors, dose response, cell-based, Clone20 osteoblasts, firefly luciferase, cherry-picked (AID 624132); format: functional;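 also: firefly luciferase luminescence from reporter carrying the Shn3 3'UTR in osteoblasts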

Large T antigen, sequence (P03070 whole entry): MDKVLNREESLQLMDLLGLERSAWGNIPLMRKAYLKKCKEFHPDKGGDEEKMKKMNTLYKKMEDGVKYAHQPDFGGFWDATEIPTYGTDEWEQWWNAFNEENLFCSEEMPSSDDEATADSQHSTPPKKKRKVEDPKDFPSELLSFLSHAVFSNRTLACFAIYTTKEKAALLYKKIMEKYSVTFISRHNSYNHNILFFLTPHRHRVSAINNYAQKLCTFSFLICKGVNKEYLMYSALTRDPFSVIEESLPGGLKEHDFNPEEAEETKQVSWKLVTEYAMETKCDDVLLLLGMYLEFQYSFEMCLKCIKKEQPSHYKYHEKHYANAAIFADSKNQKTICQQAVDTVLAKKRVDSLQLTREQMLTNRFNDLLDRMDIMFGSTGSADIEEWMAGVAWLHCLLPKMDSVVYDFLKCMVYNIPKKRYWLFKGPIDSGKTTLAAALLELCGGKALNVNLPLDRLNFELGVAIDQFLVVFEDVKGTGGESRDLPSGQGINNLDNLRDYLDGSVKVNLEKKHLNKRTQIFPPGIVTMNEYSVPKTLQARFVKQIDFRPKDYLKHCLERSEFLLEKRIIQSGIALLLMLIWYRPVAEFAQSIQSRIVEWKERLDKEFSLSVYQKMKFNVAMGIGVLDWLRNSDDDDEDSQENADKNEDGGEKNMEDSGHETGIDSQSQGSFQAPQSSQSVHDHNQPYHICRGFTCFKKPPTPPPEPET

Q: With COc1ccc(-c2ccc([C@@H]3[C@H]4CN(C(=O)NC(C)C)CC(=O)N4[C@H]3CO)cc2)cc1 as the compound, how does the AC50 [1] read?
A: 10 µM (active)

Q: With COc1ccccc1-c1ccccc1[C@H]1[C@H](C#N)N(C(=O)C2CCC2)[C@H]1CO as the compound, how does the AC50 [1] read?
A: 12 µM (active)

Q: With N=c1c2c(-c3ccccc3)c(-c3ccccc3)n(Cc3ccco3)c2ncn1CCO as the compound, how does the EC50 [2] read?
A: 1.27 µM (active)

Q: What about the EC50 [3] of the same compound?
A: 1.15 µM (active)

Q: Which AC50 [4] does the source give for CC(=O)c1ccc([C@H]2C[C@@]34CN(C(=O)OC(C)(C)C)S(=O)(=O)[C@H]3C[C@H]2O4)cc1 here?
A: 36.6 µM (active)

Q: Which IC50 [5] does the source give for Cc1ccc(C2C=NN(c3ccccc3)C2=O)cc1 (stereo not drawn) here?
A: 115 µM (active)

Q: And the IC50 (Large T antigen)?
A: 31 µM (active)

Q: Which IC50 (Large T antigen) does the source give for O=C(O)c1cccc(S(=O)(=O)Nc2ccc3oc(=O)sc3c2)c1 here?
A: 46.3 µM (active)

Q: What does the source list for Cc1ccc(C(=O)Nc2c3c(nn2C(C)(C)C)CS(=O)(=O)C3)cc1C?
A: EC50 (cells [6]): > 350 µM (not active); EC50 (cells [7]): > 350 µM (not active)

Q: For Cc1cc(-c2nnnn2-c2cc(Cl)cc(Cl)c2)no1, which EC50 (cells [6]) is on record?
A: > 350 µM (not active)

Q: What about the EC50 (cells [7]) of the same compound?
A: > 350 µM (not active)

Q: With COc1ccc(NC2=NC(=S)N(c3ccc(C)cc3)C23CCCCC3)cc1 as the compound, how does the EC50 [2] read?
A: 2.47 µM (active)

Q: What about the EC50 [3] of the same compound?
A: 3.42 µM (active)

Q: For C[C@@H]1CN([C@H](C)CO)S(=O)(=O)c2ccc(C#C[C@@H](C)O)cc2O[C@H]1CN(C)C(=O)Nc1ccccc1, which AC50 [1] is on record?
A: 13 µM (active)

Q: Which results are given for CCOC(=O)/C(=N\Nc1ccc(F)cc1)C(=O)c1ccc([N+](=O)[O-])cc1?
A: EC50 (cells [6]): > 350 µM (not active); EC50 (cells [7]): > 350 µM (not active)

Q: For CC(C(=O)Nc1ccccc1-c1ccccc1)N1CCN(C(=O)c2ccccc2)CC1 (stereo not drawn), which EC50 (cells [6]) is on record?
A: > 350 µM (not active)

Q: And the EC50 (cells [7])?
A: > 350 µM (not active)

Q: Which EC50 (cells [6]) does the source give for COc1ccc(C2NN=C(c3ccc(C)cc3)S2)cc1 (stereo not drawn) here?
A: 24.6 µM (active)

Q: And the EC50 (cells [7])?
A: > 350 µM (not active)

Q: With CCn1c(SCC(=O)Nc2cc(C)on2)nc2sc3c(c2c1=O)CCCC3 as the compound, how does the AC50 (INS1) read?
A: 8.67 µM (active)

Q: And the EC50 [2]?
A: 13.2 µM (active)

Q: And the EC50 [3]?
A: 6.49 µM (active)

Q: For Nc1ncnc(O)c1/N=C/c1ccccc1, which IC50 (Large T antigen) is on record?
A: 28.6 µM (active)

Q: Which AC50 [8] does the source give for C=C1C(=O)O[C@H]2[C@H]1[C@H](OC(=O)CC(=O)O[C@@H]1C[C@@H](C)[C@@H]3C=CC(=O)[C@@]3(C)[C@H]3OC(=O)C(=C)[C@H]13)C[C@@H](C)[C@H]1C=CC(=O)[C@]12C here?
A: > 70 µM (inactive)

Q: What about the IC50 (Large T antigen) of the same compound?
A: 52 µM (active)

Q: And the AC50 [9]?
A: 1.54 µM (active)

Q: For Cc1cccc(N2C(=O)/C(=C/Nc3ccc(O)cc3)c3ccccc3C2=O)n1, which IC50 (Large T antigen) is on record?
A: 7.67 µM (active)

Q: With Cc1ccc(NC(=O)CSc2ncc3ccccn23)cc1 as the compound, how does the EC50 (cells [6]) read?
A: 41.4 µM (active)

Q: And the EC50 (cells [7])?
A: > 350 µM (not active)

Q: For COc1ccc(NC(=O)Nc2ccc3c(c2)[C@H]2C[C@H](CC(=O)N4CCc5ccccc5C4)O[C@H](CO)[C@H]2O3)cc1, which AC50 [1] is on record?
A: 7.78 µM (active)

Q: For COc1ccc(NC(=O)Nc2ccc3c(c2)CC(=O)N([C@H](C)CO)C[C@H](C)[C@@H](CN(C)CC2CCCCC2)O3)cc1, which AC50 [1] is on record?
A: 4.53 µM (active)
